# Experimental data as given in patent US7642085B2, “Protein arrays” (priority 2002, dated 2010).
# Where two headings read alike, the source gives them in different places.
# How the values were obtained:
# [1] = system: E. coli DH10B cells; assay: growth rate of cells grown in the presence of the unnatural amino acid; settings: 1 mM; cells transformed with mutRNACUA^Tyr, LW1RS and Z domain gene (Lys7TAG)
# Procedure: E. coli DH10B cells cotransformed with pLEIZ and pBK-LW1RS were grown in minimal media containing 1% glycerol and 0.3 mM leucine (GMML media) with 25 μg/mL kanamycin, 34 μg/mL of chloramphenicol, and 1.0 mM p-acetyl-(±)-phenylalanine. When cells reach an OD600 of 0.5, isopropyl-β-D-thiogalactopyranoside (IPTG) (1 mM) was added to induce polypeptide expression.
# To test the ability of the evolved synthetase and the mutRNACUA^Tyr to selectively incorporate p-acetyl-L-phenylalanine into polypeptides, an amber stop codon was substituted at a permissive site (Lys7) in the gene for the Z domain of staphylococcal protein A (32) with a COOH-terminal His6 tag. […] Cells transformed with the mutRNACUA^Tyr, LW1RS and Z domain gene (Lys7TAG) were grown in the presence of 1 mM p-acetyl-(±)-phenylalanine.
# [2] = system: cells harboring mutant TyrRS plasmids; assay: chloramphenicol resistance of cells harboring mutant TyrRS plasmids selected for m-acetyl phenylalanine; format: cell-based
# From the text: Preparation of Mutant TyrRS Library Plasmids. A library of plasmids encoding mutant M. jannaschii TryRSs directed at meta-substituted tyrosine derivatives was constructed, generally following the methods described in Example 1 of WO 2002/085923. Briefly, six residues (Tyr^32, Ala^67, His^70, Gln^155, Asp^158, Ala^167) in the active site of M. jannaschii TyrRS that are within 6.9 Å of the meta-position of the aryl ring of bound tyrosine in the crystal structure of Bacillus stearothermophilus TyrRS were mutated to all 20 amino acids at DNA level using the NNK codon scheme as described in Example 1 above. The constructed plasmid library pBK-lib contained around 1×10^9 independent clones.
# Evolution of Orthogonal tRNA-synthetase Pairs for Incorporation of m-acetyl Phenylalanine. After 3 rounds of positive selection and 2 rounds of negative selection, five candidate clones (SEQ ID NO: 17-21 of WO 2002/085923) emerged whose survival in chloramphenicol was dependent on the addition of the unnatural amino acid. In the absence of m-acetyl phenylalanine, the IC50 of chloramphenicol resistance for cells harboring the one of the […] mutant TyrRS plasmids is 20 μg/ml. In the presence of m-acetyl phenylalanine, the IC50 of resistance to chloramphenicol for the same cells is 100 μg/ml. […]
# [3] = system: E. coli cells expressing mutant TyrRS and mutRNACUA^Tyr; assay: in vivo CAT assay: chloramphenicol resistance of cells expressing selected mutant TyrRS and mutRNACUA^Tyr (Asp112TAG CAT gene); format: cell-based, Escherichia coli; settings: for IC50: Escherichia coli, read-out: IC50 value of chloramphenicol, eleven mutant TyrRS
# Procedure: In the positive selection, plasmid pYC-J17 was used to express the mutRNACUA^Tyr gene and the chloramphenicol acetyl transferase (CAT) gene with a TAG stop codon at Asp112 (4). Supercoiled DNA encoding the TyrRS library was transformed into E. coli DH10B competent cells containing pYC-J17. Cells were then plated on minimal media plates containing 1% glycerol and 0.3 mM leucine (GMML) with 17 μg/mL tetracycline, 25 μg/mL kanamycin, 60 μg/mL of chloramphenicol, and 1 mM p-acetyl-L-phenylalanine. After incubation at 37° C. for 40 hours, colonies were pooled, and plasmids were isolated. Plasmids encoding mutant synthetases (pBK plasmids) were separated from pYC-J17 using gel electrophoresis and transformed into E. coli DH10B competent cells containing pLWJ17B3 for negative selection. […] Transformed cells were grown on LB (Luria-Bertani) plates containing 0.2% arabinose, 50 μg/ml kanamycin, and 35 μg/ml chloramphenicol. After 8 hours, cells were removed from the plate, and pBK plasmids were purified for further rounds of selection. In the second and third round of positive selection, the concentration of chloramphenicol was increased to 80 and 100 μg/mL, respectively. […] The polypeptide sequences of these mutant TyrRS converged on 3 independent clones LW1, LW5 and LW6, although the codon usage of each mutant TyrRS differs.
# The Methanococcus jannaschii tyrosyl-tRNA synthetase (TyrRS) and a mutant tyrosine amber suppressor tRNA (mutRNACUA^Tyr) were used as the starting point for the generation of the orthogonal tRNA-synthetase pairs. […] To change the amino acid specificity of the TyrRS so that it charges p-acetyl-L-phenylalanine and not any of the common 20 amino acids, a library of M. jannaschii TyrRS mutants was generated and screened. The crystal structure of the homologous Bacillus stearothertnophilus TyrRS (31) was used to identify those residues that are within 6.5 Å of the para position of the aryl ring of bound tyrosine. Five corresponding residues (Tyr32, Glu107, Asp158, Ile159 and Leu162) in the active site of M. jannaschii TyrRS were randomly mutated by polymerase chain reaction (PCR) to generate a library 1.6×10^9 in size (4). This TyrRS mutant library was first passed through a positive selection in the presence of 1 mM p-acetyl-L-phenylalanine which is based on the suppression of an amber stop codon at nonessential residue (Asp 112) in chloramphenicol acetyl transferase (CAT) gene encoded on plasmid pYC-J17 (4) in E. coli. Cells surviving in chloramphenicol must encode a mutant synthetase that aminoacylates the mutRNACUA^Tyr with either a common amino acid(s) or p-acetyl-L-phenylalanine. […]
# [4] = system: mutant Z domain protein expressed by mutRNACUA^Tyr/LW1RS; assay: fidelity of unnatural amino acid incorporation into Z domain (Lys7TAG), by FT-ICR MS; set-up: species or system E. coli; settings: from a signal-to-noise ratio of more than 1500 in the intact protein mass spectrum
# From the text: Plasmid pLEIZ was used to express the Z-domain gene with an amber codon at the 7th position and a COOH-terminal His6 tag under the control of a bacteriophage T5 promoter and t0 terminator, and the mutRNACUA^Tyr gene under the control of the lpp promoter and rrnC terminator. The mutant synthetase gene isolated from clone LW1 (LW1RS) was encoded in plasmid pBK-LW1RS under the control of the constitutive E. coli GlnRS promoter and terminator. E. coli DH10B cells cotransformed with pLEIZ and pBK-LW1RS were grown in minimal media containing 1% glycerol and 0.3 mM leucine (GMML media) with 25 μg/mL kanamycin, 34 μg/mL of chloramphenicol, and 1.0 mM p-acetyl-(±)-phenylalanine. When cells reach an OD600 of 0.5, isopropyl-β-D-thiogalactopyranoside (IPTG) (1 mM) was added to induce polypeptide expression. […] The yield of polypeptide was measured by Bradford assay (BCA kit, Biorad, Hercules, Calif.). […]
# To test the ability of the evolved synthetase and the mutRNACUA^Tyr to selectively incorporate p-acetyl-L-phenylalanine into polypeptides, an amber stop codon was substituted at a permissive site (Lys7) in the gene for the Z domain of staphylococcal protein A (32) with a COOH-terminal His6 tag. Z domain has a molecular weight of about 7.9 kD, so its mass can be measured with very high accuracy using ion cyclotron resonance mass spectrometry. […]
structure (smiles),measurement,setting,value
CC(=O)c1ccc(CC(N)C(=O)O)cc1 (racemic) [p-acetyl-(±)-phenylalanine],effect on growth rate of cells,[1],did not affect the growth rate of cells
O=C(N[C@H](CO)[C@H](O)c1ccc([N+](=O)[O-])cc1)C(Cl)Cl [chloramphenicol],IC50,"[2]; in the presence of m-acetyl phenylalanine, read-out: IC50 of resistance to chloramphenicol",100 µg/mL
same,IC50,[2]; read-out: IC50 of chloramphenicol resistance,20 µg/mL
same,IC50,[3]; in the absence of p-acetyl-L-phenylalanine,9 µg/mL
same,IC50,[3]; in the presence of p-acetyl-L-phenylalanine,120 µg/mL
same,chloramphenicol concentration on which cells survived,"[3]; GMML plates, in the absence of p-acetyl-L-phenylalanine",9 µg/mL
same,chloramphenicol concentration in which cells survived,"[3]; GMML plates, in the presence of p-acetyl-L-phenylalanine",120 µg/mL
CC(=O)c1ccc(C[C@H](N)C(=O)O)cc1 [p-acetyl-L-phenylalanine],fidelity for the incorporation,[4],> 99.8%
